We go through 20 substances from US20070269892A1, “FORMULATIONS FOR INTRACELLULAR DELIVERY dsRNA” (NASTECH PHARMACEUTICAL COMPANY INC., priority 2006, published 2007).

PEG10k = poly(ethylene glycol) of 10 kD conjugated to the peptide; PEG2k = PEG 2k (PEG2k-maleimide); Mal = maleimide

The subject of data set [1] is 9L/LacZ cells. Nature of the data set: Cellular uptake of peptide/siRNA condensates (fluorescence intensity). Particulars: study 2; NT peptides at 100 nM, N/P=2 with pluronic F127; PN0593/PN0594 at varying N/P. It counts as cell-based. As to the method: Cells are plated per well in 24-well plates the day before transfection in complete media. The siRNA is labeled, for example with Cy-5 conjugate. The peptide/siRNA condensates are added to cells previously washed with phosphate buffered saline (PBS). Cells were transfected for three hours at 37° C., 5% CO2. Cells were washed with PBS, treated with trypsin, and then analyzed by flow cytometry.
siRNA cell-uptake was measured by the intensity of intracellular Cy5 fluorescence. The cell-uptake assay is used to determine the percentage of cells that contain the Cy5-conjugated siRNA. Mean Fluorescence Intensity (MFI) is used to determine the relative mean quantity of Cy5-conjugated siRNA that entered the cells.

Another data set has as its system Lac-Z. Particulars: study 2, 100 nM, N/P=2, 0.1% pluronic F127.
In data set [2] the test system is 9L/LacZ cells. Nature of the data set: Micro BCA total protein assay (toxicity). The format is cell-based. The following applies: study 1, 100 nM, N/P=2.
Procedure: For study 1 and 2, 7,000-10,000 9L/LacZ cells (passage 5-25) were plated in cell culture media in each well of a 96-well plate and grown overnight. Cells (in 75 μl of media) were transfected by adding 25 μl of each formulation to be tested; 4 hours thereafter 100 μl of fresh media is added to each well, which media is replaced with 100 μl of fresh media approximately 16 hours later. […] Cells were harvested 3 days after transfection by the addition of 50 μl of lysis buffer for β-galactosidase and Micro BCA assays.
For study 1 and 2, a Micro BCA assay (Pierce Chemical Company, Rockford, Ill.) was performed in order to measure total protein concentration, as follows: 9L/LacZ cells were washed 1× with phosphate buffered saline (PBS). Then, 50 μl of M-PER® Reagent was added to each well and incubated for 15 minutes at room temperature. After incubation, 10 μl of each lysate was transferred to a new well (using a 96-well plate format) containing 140 μl of dH20, and then 150 μl of Micro BCA working solution was added. The plates were covered, incubated at 37° C. for 2 hours and then the absorbance measured at 562 nm was recorded.
Data set [3] can be described thus: Particle size analysis of siRNA/peptide polymer formulations. It counts as physicochemical. The following applies: 24 hours after formulation, siRNA 0.8 μM/peptide polymers, N/P=2. As to the method:
Formulations for particle size analysis were prepared in Hepes 11 mM pH7.4, at a siRNA concentration of 0.8 uM (11.59 μg/ml) and then diluted into OPTI-MEM. For nanoparticle size analysis of siRNA/peptide polymers, we used 1 ug RNA/0.8 nmols peptide polymer (based on monomer). The total vol of sample was 1 ml containing 50 ug RNA and 40 nmol peptide polymer in Hepes buffer mannitol (5 mM HEPES, 5% mannitol, pH 7.5) (Filter). The particle size analysis was performed on a Zeta Plus/Zeta potential analyzer.
Briefly, buffer was added first and then concentrated siRNA was added followed by votexing for 3 seconds (at full speed). The peptide polymer was then added followed by votexing for an additional 6 seconds (at full speed). Formulations were maintained at room temperature for 10 minutes. In a 96-well plate format, formulations were then diluted 20× for a final siRNA concentration of 10 nM (6.25 μl into 118.75 μl of OPTI-MEM) or 2× for a final concentration of 100 nM (62.5 μl of formulation into 62.5 μl OPTI-MEM). After dilution, formulations were mixed gently. For positive control preparation, 0.5 μl of HiPerFect was diluted into 12.5 μl of OPTI-MEM and 0.5 μl of siRNA into 12.5 μl of OPTI-MEM, respectively; and incubated at room temperature for 5 minutes, and then combined diluted siRNA and diluted HiPerFect, and incubated at room temperature for 15 minutes. A formulation pH of about 7.4 was chosen in order to minimize reduction of peptide that is polymerized through cycteine disulfide bonds.
Particle size was measured 24 hours after formulation of siRNA 0.8 μM/peptide polymers (N/P=2). […] In summary, all formulation tested in this study formed particles at about or less than about 100 nm.

Data set [4] can be described thus: Glutathione (GSH) mediated siRNA release from disulfide cross-linked peptide siRNA particles. The format is physicochemical. Particulars: 5 ug siRNA/4 nmols peptide polymer, GSH 0.5 mg. As for the experimental part:
In a separate experiment, glutathione (GSH) was added to disulfide cross-linked peptide siRNA particles (which may be referred to as nanoparticles) in order to detect siRNA release from disulfide cross-linked peptide siRNA condensates. The reduction of the peptide polymers, leading to dissociation and release of siRNA was monitored by continues measurement of the fluorescence intensity of […] over 15 minutes. Briefly, siRNA nanoparticles (N/P: 5 ug siRNA/4 nmols peptide polymer) were treated with reducing agent glutathione (GSH, 0.5 mg scale) and thiazole orange (0.1 ug) in 1 ml sample in HBM buffer pH 7.5. The fluorescence intensity was monitored over 15 min at Ex 498 nm and Emi 546 nm. Samples tested were (1) siRNA and Thiazole orange (No peptide polymer, No GSH), (2) Peptide polymer, siRNA and Thiazole orange (No GSH), and (3) Peptide polymer, siRNA, Thiazole orange and GSH.

In another data set the test system is G1498 siRNA. In words: SYBR-gold dye displacement assay of peptide binding to siRNA, with Scatchard analysis. The following applies: for Bmax (Scatchard Analysis) / Kd (Scatchard Analysis) / Max Bound siRNA: siRNA 10 μg/mL; for Max Bound siRNA: peptide:siRNA charge ratio 0.05 to 10; for Relative affinity of binding to siRNA: comparison within Table 7. As to the method:
Peptides (see Table 4, Example 2) are suspended in Hyclone nuclease free water. Test dilutions of this peptide stock are made in sterile, Nuclease-free eppendorf tubes at a 2× final concentration and buffered to pH 7.4 with 20 mM Phosphate. Nine concentrations of each peptide were made, corresponding to charge ratios of approximately 0.05 to 10. The molar ratios and μg/mL and μM concentrations of each peptide corresponding to these charge ratios are detailed in Tables 1, 2 and 3.
SYBR-gold nucleic acid binding dye stock, a 10,000× concentrate, is supplied by Invitrogen (Carlsbad, Calif.) and stored at −20° C. The concentrate is allowed to equilibrate to room temperature before diluting 1 to 100 in Hyclone nuclease free water. This is then diluted 1 to 10 in the experimental plate for a final concentrate of 10× for the assay. This is the optimal dilution to achieve linear binding to siRNA duplex at a concentration range of up to 50 μg/mL concentration. For higher concentrations, the amount of dye to use may be further optimized.
Samples are mixed directly in the 384 well analysis plate. First 5 μL SYBR-gold dye is pipetted into each well with a multichannel pipette, touching the tip to the bottom of the well to draw out the solution completely. Then 22.5 μL of 2× peptide solution is added with a single channel pipette. Since SYBR-gold will not bind to peptide (and peptide samples without siRNA will verify this assumption), there will be no bleaching effect on fluorescence. Finally, 22.5 μL of 2× siRNA is added with a multichannel pipette. The plate is covered immediately with foil and tapped gently to mix and draw down any droplets on the side of the well.
Fluorescence is measured using the SpectraMax fluorescent plate reader from Molecular Devices (Sunnyvale, Calif.). Plate settings include shaking before reading, one read per well, with excitation wavelength of 495 nm and emission wavelength of 537 nm. The plate is read within 30 minutes of the addition of the siRNA.
Scatchard Plot is a plot of peptide binding ([peptide]bound/[peptide]free) vs. [peptide]bound. The slope of the linear regression of this plot is −1/Kd and Bmax is the […]. Since the concentration of free and bound peptide cannot be measured directly, indirect measurements of siRNA is used for the calculation. Free siRNA is determined from measured fluorescence using the standard curve. Bound siRNA is determined from the standard curve by mass balance from the known initial siRNA concentration (10 μg/mL). Bound peptide is calculated from bound siRNA by assuming the (siRNA:Peptide) bound molar ratio is equal to the (siRNA:Peptide) charge ratio for a single molecule pairing. From this calculated bound peptide amount, the free peptide is calculated by mass balance.
The relative binding of various peptides to siRNA via a rapid screen is assessed by indirect measurement of the displacement of SYBR-gold nucleic acid binding dye. A buffered mixture of siRNA, peptide and SYBR-gold is prepared in the measurement plate in duplicate such that the peptide and SYBR-gold dye undergoes simultaneous competitive binding of the siRNA. The concentration of siRNA is fixed at 10 μg/mL and is combined with a titration of each peptide ranging in a concentration that corresponds to a peptide:siRNA charge ratio between 0.05 to 10. Since SYBR-gold dye only fluoresces when bound to siRNA, peptide binding to the siRNA is inhibits binding of the dye and consequently reduces the fluorescence. Therefore, the amount of fluorescence correlates inversely to the binding of the peptide to the siRNA.

Procedure for Lac-Z: The LacZ assay was performed three days post-transfection. Cells were rinsed with phosphate buffers saline (PBS) after removal of cell media. The PBS was aspirated and the cells were lysed by the addition of 50 μl M-PER™ to each well and incubating the cells for 15 minutes while gently shaking. Following cell lysis, 10 μl of cell lysate was removed from each well to perform a total protein assay (micro BCA kit, Pierce). In order to measure LacZ activity, 30 μl of cell lysate was transferred to a new plate and 30 μl of ALL-IN-ONE™ beta-galactosidase (β-gal) was added to each well of the new plate. The new plate was covered to avoid light exposure and incubated for 30 minutes at 37° C. Following the 30 minute incubation, the absorbance was read at 405 nm with a μQuant plate reader (Bio-Trek Instrument) to measure LacZ activity.
For study 1 and 2, 7,000-10,000 9L/LacZ cells (passage 5-25) were plated in cell culture media in each well of a 96-well plate and grown overnight. […]
For study 1 and 2, a Micro BCA assay (Pierce Chemical Company, Rockford, Ill.) was performed in order to measure total protein concentration, as follows: 9L/LacZ cells were washed 1× with phosphate buffered saline (PBS). […] The plates were covered, incubated at 37° C. for 2 hours and then the absorbance measured at 562 nm was recorded. […]

Cys-Trp-(Lys)4-Cys (CWKKKKC) [NT-18]: the Uptake result in the data set with 9L/LacZ cells [1] was “good uptake”. Besides, the “Knockdown of gene expression” value in the data set on Lac-Z is listed as “about 20%”. Further, in the data set on 9L/LacZ cells [2], the “Toxicity (total protein expression)” value is recorded as “no apparent toxicity”. Also, in data set [3], the Particle size entry is on record as “about 105 nm”.

Take “Cys-Trp-(Lys)4-Cys-(Lys)4-Cys (CWKKKKCKKKKC) [NT-22]”: the Particle size result in data set [3] was “about 90.8 nm”.

With “Cys-Trp-(Lys)4-His-(Lys)4-Cys (CWKKKKHKKKKC) [NT-23]”, the Particle size entry in data set [3] is given as “about 65.7 nm”.

In the case of Cys-Trp-(Lys)6-Cys (CWKKKKKKC) [NT-19], the Uptake result with 9L/LacZ cells [1] is recorded as “good uptake”. In addition, in the data set on Lac-Z, the “Knockdown of gene expression” value is reported as “about 27%”. Besides, the “Toxicity (total protein expression)” value with 9L/LacZ cells [2] is “no apparent toxicity”. For the same substance, the Particle size entry in data set [3] is listed as “about 78.7 nm”.

With “Cys-Trp-(Lys)8-Cys (CWKKKKKKKKC) [NT-20]”, the Uptake entry with 9L/LacZ cells [1] is “good uptake”. Moreover, the Particle size result in data set [3] is recorded as “about 67.6 nm”.

In the case of “Cys-Trp-(Lys)10-Cys (CWKKKKKKKKKKC) [NT-21]”, the Uptake entry in the data set with 9L/LacZ cells [1] was “good uptake”. Also, the “Reduction of peptide polymer by GSH with siRNA release” value in data set [4] is “exception”. Further, the Particle size result in data set [3] is reported as “about 55.7 nm”.

Regarding “Cys-Trp-His-(Lys)4-His-(Lys)4-Cys (CWHKKKKHKKKKC) [NT-24]”, the “Toxicity (total protein expression)” value in the data set on 9L/LacZ cells [2] was “no apparent toxicity”. Also, in data set [3], the Particle size result is listed as “about 82.2 nm”.

With “Cys-Trp-His-(Lys)4-His-(Lys)4-His-Cys (CWHKKKKHKKKKHC) [NT-25]”, the Particle size entry in data set [3] is reported as “about 64.6 nm”.

With KKKKKKKKK [PN0860-2, Ac-(Lys)9-amide], in the data set on G1498 siRNA, the “Bmax (Scatchard Analysis)” value is 0.379 μMbound/μMfree, the “Kd (Scatchard Analysis)” value was 0.204 µM⁻¹ and the “Max Bound siRNA” value is 43% mole %.

As to “KKKKKKKKKKKKKKKKKK [PN0858-1, Ac-(Lys)18-amide]”, in the data set with G1498 siRNA, the “Bmax (Scatchard Analysis)” value is 0.828 μMbound/μMfree, the “Kd (Scatchard Analysis)” value came to 0.348 µM⁻¹ and the “Max Bound siRNA” value was 66% mole %.

As for “KKKKKKKKKKKKKKKKKKKK [PN0924-1, NH2-(Lys)20-amide]”, in the data set with G1498 siRNA, the “Bmax (Scatchard Analysis)” value is given as 0.883 μMbound/μMfree, the “Kd (Scatchard Analysis)” value amounted to 0.426 µM⁻¹ and the “Max Bound siRNA” value is 71% mole %.

For “NH2-PLKPLKPLKPLKPLKPLK-amide (H-PLKPLKPLKPLKPLKPLK-NH2) [PN0594]”, the Uptake entry with 9L/LacZ cells [1] was “very low”.

As for “NH2-VRLPPPVRLPPPVRLPPP-amide (H-VRLPPPVRLPPPVRLPPP-NH2) [PN0593]”, the Uptake entry with 9L/LacZ cells [1] is listed as “very low”.

For “PEG2k-Mal-(Lys)10-amide ({PEG2k-Mal}-KKKKKKKKKK-NH2) [PN0933-2]”, in the data set with G1498 siRNA, the “Bmax (Scatchard Analysis)” value amounted to 0.241 μMbound/μMfree, the “Kd (Scatchard Analysis)” value is 0.326 µM⁻¹ and the “Max Bound siRNA” value is recorded as 39% mole %.

Take “PEG2k-Mal-(Lys)15-amide ({PEG2k-Mal}-KKKKKKKKKKKKKKK-NH2) [PN0930-2]”: in the data set with G1498 siRNA, the “Bmax (Scatchard Analysis)” value is recorded as 0.560 μMbound/μMfree, the “Kd (Scatchard Analysis)” value is 0.250 µM⁻¹ and the “Max Bound siRNA” value is reported as 48% mole %.

On to PEG2k-Mal-(Lys)25-amide [PN0925-2], for which, in the data set on G1498 siRNA, the “Bmax (Scatchard Analysis)” value is 2.077 μMbound/μMfree, the “Kd (Scatchard Analysis)” value came out at 0.150 µM⁻¹ and the “Max Bound siRNA” value amounted to 59% mole %.

For the substance “PEG10k-Mal-(Lys)15-amide ({PEG10k-Mal}-KKKKKKKKKKKKKKK-NH2) [PN0931-2]”, in the data set on G1498 siRNA, the “Bmax (Scatchard Analysis)” value came out at 0.992 μMbound/μMfree, the “Kd (Scatchard Analysis)” value worked out at 0.130 µM⁻¹ and the “Max Bound siRNA” value was determined as 47% mole %.

For the substance PEG10k-Mal-(Lys)30-amide [PN0907-2], the “Max Bound siRNA” value with G1498 siRNA is reported as 58% mole %.

As for RRRRRRRRR [PN0861-2, Ac-(Arg)9-amide], in the data set on G1498 siRNA, the “Relative affinity of binding to siRNA” value was “greatest affinity”, the “Bmax (Scatchard Analysis)” value is 0.198 μMbound/μMfree, the “Kd (Scatchard Analysis)” value came out at 0.771 µM⁻¹ and the “Max Bound siRNA” value stood at 68% mole %.

Turning to “RRRRRRRRRRRRRRRRRR [PN0859-2, Ac-(Arg)18-amide]”, in the data set with G1498 siRNA, the “Relative affinity of binding to siRNA” value is given as “greatest affinity”, the “Bmax (Scatchard Analysis)” value was 0.495 μMbound/μMfree, the “Kd (Scatchard Analysis)” value amounted to 0.929 µM⁻¹ and the “Max Bound siRNA” value was 64% mole %.
